Measured values reported in patent US20070134286A1, “Methods for reducing intimal hyperplasia, smooth muscle cell proliferation and restenosis in mammals” (priority 2004, published 2007).
Where two headings read alike, the source gives them in different places.

Key:
[1] = tested on: primary culture of human coronary artery smooth muscle cells; assay: Affymetrix U133Av2 microarray gene expression; type: cell-based; conditions: 100 nM, 30 hr, ratio to no-drug control; for FC angiopoietin 1 (NM_001146) / FC coagulation factor II (thrombin) receptor-like 1 (NM_005242) / FC endothelin receptor type B (NM_000115) / FC fibroblast growth factor 9 (glia-activating factor) (NM_002010) / FC fibroblast growth factor receptor 3 (achondroplasia, thanatophoric dwarfism) (NM_000142) / FC insulin-like growth factor 1 (somatomedin C) (NM_000618) / FC matrix metalloproteinase 14 (membrane-inserted) (NM_004995) / FC natriuretic peptide precursor B (NM_002521) / FC oxytocin receptor (NM_000916) / FC phospholamban (NM_002667) / FC prostaglandin-endoperoxide synthase 1 (prostaglandin G/H synthase and cyclooxygenase) (NM_000962) / FC thrombomodulin (NM_000361) / FC thrombospondin 1 (AI812030) / FC transforming growth factor, beta 2 (NM_003238) / FC transforming growth factor, beta 3 (J03241): Table 4
Method: Microarray: […] While the yield of total RNA was low ([…] total per sample), the RNAs were intact as judged by Agilent 2100 analysis. One μg of total RNA from each sample was used to prepare biotin-labeled cRNA target using standard Affymetrix protocols. Prepared cRNA targets were of good quality and quantity. The Affymetrix Human chip U133Av2 was used (22,000+ probe sets) and 10 μg cRNA target was applied to each array. […] Scanned images were loaded into the Rosetta Resolver 4.0 database and processed using the Resolver Affymetrix error model. Within Resolver the drug treated sample replicates (n=3) were informatically combined and ratios constructed relative to the combined control (no addition of drug) samples. The Resolver Affymetrix error model was used to develop each ratio and calculate a p-value. The Resolver error model is robust and includes reporter level, background and error values in the calculation of statistical significance. A combination of hierarchical clustering, gene ontology analysis and pathway mapping were used to assess the function of the regulated genes.

[2] = tested on: human coronary artery smooth muscle cells; assay: 3H-thymidine incorporation (DNA synthesis / cell proliferation); type: cell-based
Method: One day after plating, the cells were treated with test agents for 24 hours and then labeled with 0.3 μCi/well of ^3H-thymidine for another 48 hours. Each well was washed with 0.3 ml/well of PBS, incubated with 0.2 ml/well of ice-cold 10% trichloroacetic acid (hereinafter “TCA”) for 30 minutes at 4° C., and then followed by another wash of 0.2 ml/well of TCA. Samples were dissolved in MICROSCINT™ 20 before counting. Data shown are mean ± the standard deviation (n=4).
Thymidine incorporation: Cells were plated at 1×10^6 cells/ml, 200 μl/well into 96-well plates (Costar). One day after plating, the cells were treated with test agents for 24 hr and then labeled with 0.3 μCi/well of ^3H-thymidine for another 48 hr. Each well was washed with 0.3 ml/well of PBS, incubated with 0.2 ml/well of ice-cold 10% trichloroacetic acid (TCA) for 30 min at 4° C., and then followed by another wash of 0.2 ml/well of TCA. Samples were dissolved in MICROSCINT™ 20 (Packard) before counting.

[3] = tested on: VDR; conditions: 0.1 μM, CASMC in growth medium, not all cells responded, FIG. 2
[4] = tested on: TGFβ3; assay: Real-time RT-PCR, TGFβ3 mRNA expression in smooth muscle cells; type: cell-based; conditions: Homo sapiens, normalized to GAPDH, FIG. 7, read-out: EC50 on TGFβ3 mRNA expression (up-regulation)
Method: (§1) Primers and probes for Real-time Reverse Transcription-PCR: For quantitative PCR (qPCR), TaqMan™ probes that were 5′ labeled with the reporter 6-carboxyfluorescein (FAM) and 3′ labeled with the quencher tetramethylrhodamine (TAMRA) were used. The primer and probe sets were obtained from the Assay-on-Demand collection (Applied Biosytsems).
(§2) Real-time Reverse Transcription-PCR: PCR was performed with a 7900HT sequence detector (Applied Biosytsems). Each sample has a final volume of 25 μl containing 50 ng of cDNA, […] each of the forward and reverse PCR primers and […] of the TaqMan™ probe. Temperature conditions consisted of a step of 5 minutes at 95° C., followed by 40 cycles of 60° C. for 1 minute and 95° C. for 15 seconds. Data was collected during each extension phase of the PCR reaction and analyzed with the SDS software package (Applied Biosystems). Threshold cycles were determined for each gene. The expression level of target gene of interest was given as relative expression normalized against glyceraldehyde-3-phosphate dehydrogenase (GAPDH).

[5] = tested on: IGF1; assay: Real-time RT-PCR, IGF1 mRNA expression in smooth muscle cells; type: cell-based; conditions: Homo sapiens, normalized to GAPDH, FIG. 7, read-out: EC50 on IGF1 mRNA expression (up-regulation)
Method: as §1, §2

[6] = tested on: WT1; assay: Real-time RT-PCR, WT1 mRNA expression in smooth muscle cells; type: cell-based; conditions: Homo sapiens, normalized to GAPDH, FIG. 7, read-out: EC50 on WT1 mRNA expression (up-regulation)
Method: as §1, §2

[7] = tested on: plasminogen activator inhibitor type-1 (PAI-1); assay: SDS-PAGE and Western blot of PAI-1 in CASMC; type: cell-based, human; conditions: Western blot, FIG. 6
Method: SDS-PAGE and Western Blot Analysis: Cells (1×10^6 cells per sample) pretreated with or without test agents were solubilized in 50 μl of SDS-PAGE sample buffer (Sigma, St. Louis, Mo.), and the protein content in each sample was determined by the Pierce (Rockford, Ill.) BCA protein assay. Samples were resolved by SDS-PAGE using a 4-12% NuPAGE gel (Invitrogen, Carlsbad, Calif.), and proteins were electrophoretically transferred to polyvinylidene fluoride (hereinafter “PVDF”) membrane for Western blotting. The membrane was blotted for 1 hour at 25° C. with 5% nonfat dry milk in PBS-T and then incubated with a mouse anti-PAI-1 monoclonal antibody (1000-fold dilution, Santa Cruz Biotechnology, Santa Cruz, Calif.) in PBS-T overnight at 4° C. The membrane was washed with PBS-T and incubated with a horseradish peroxidase-labeled anti-mouse antibody for 1 hour at 25° C. The membrane was then incubated with detection reagent (SuperSignal WestPico, Pierce, Rockford, Ill.). Specific bands were visualized by exposing the paper to Kodak BioMax films.

C=C1/C(=C\C=C2/CCC[C@]3(C)[C@@H]([C@H](C)CCCC(C)(C)O)CC[C@@H]23)C[C@@H](O)C[C@@H]1O [calcitriol, 1-alpha-25-dihydroxyvitamin D3]
FC CD1D antigen, d polypeptide (205789_at) [1]: 6.95
FC CDK5 regulatory subunit associated protein 2 (220935_s_at) [1]: 2.67
FC Kruppel-like factor 4 (gut) (220266_s_at) [1]: 2.67
FC PMS2 postmeiotic segregation increased 2 (S. cerevisiae) (209805_at) [1]: 2.85
FC Wilms tumor 1 (206067_s_at) [1]: 3.55
FC Wilms tumor 1 (216953_s_at) [1]: 6.63
FC Wilms tumor associated protein (206954_at) [1]: 2.96
FC basic helix-loop-helix domain containing, class B, 3 (221530_s_at) [1]: −2.00
FC cholecystokinin B receptor (210381_s_at) [1]: −1.65
FC cyclin F (204827_s_at) [1]: −1.09
FC cysteine and glycine-rich protein 2 (207030_s_at) [1]: −2.13
FC cysteine and glycine-rich protein 2 (211126_s_at) [1]: −2.21
FC ecotropic viral integration site 2A (204774_at) [1]: −1.77
FC fibroblast growth factor 9 (glia-activating factor) (206404_at) [1]: 2.07
FC insulin-like growth factor 1 (somatomedin C) (209540_at) [1]: 4.39
FC insulin-like growth factor 1 (somatomedin C) (209541_at) [1]: 2.78
FC insulin-like growth factor 1 (somatomedin C) (209542_x_at) [1]: 3.23
FC insulin-like growth factor 1 (somatomedin C) (211577_s_at) [1]: 3.47
FC mitogen-activated protein kinase 13 (210058_at) [1]: 2.27
FC mitogen-activated protein kinase 13 (210059_s_at) [1]: 3.27
FC myosin heavy polypeptide 10, non-muscle (213067_at) [1]: −2.03
FC putative lymphocyte G0/G1 switch gene (213524_s_at) [1]: 3.69
FC retinoblastoma-like 2 (p130) (212332_at) [1]: 1.10
FC suppressor of cytokine signaling 2 (203372_s_at) [1]: −2.29
FC suppressor of cytokine signaling 2 (203373_at) [1]: −2.50
FC tetraspan 1 (209114_at) [1]: −4.34
FC transforming growth factor, beta 2 (209909_s_at) [1]: 2.91
FC transforming growth factor, beta 2 (220407_s_at) [1]: 2.97
FC transforming growth factor, beta 3 (209747_at) [1]: 2.83
FC angiopoietin 1 (NM_001146) [1]: 2.0
FC coagulation factor II (thrombin) receptor-like 1 (NM_005242) [1]: −1.7
FC endothelin receptor type B (NM_000115) [1]: 3.4
FC fibroblast growth factor 9 (glia-activating factor) (NM_002010) [1]: 2.1
FC fibroblast growth factor receptor 3 (achondroplasia, thanatophoric dwarfism) (NM_000142) [1]: 1.9
FC insulin-like growth factor 1 (somatomedin C) (NM_000618) [1]: 2.8
FC matrix metalloproteinase 14 (membrane-inserted) (NM_004995) [1]: 2.1
FC natriuretic peptide precursor B (NM_002521) [1]: −2.0
FC oxytocin receptor (NM_000916) [1]: −3.0
FC phospholamban (NM_002667) [1]: −2.6
FC prostaglandin-endoperoxide synthase 1 (prostaglandin G/H synthase and cyclooxygenase) (NM_000962) [1]: 2.2
FC thrombomodulin (NM_000361) [1]: 3.3
FC thrombospondin 1 (AI812030) [1]: −3.2
FC transforming growth factor, beta 2 (NM_003238) [1]: 2.9
FC transforming growth factor, beta 3 (J03241) [1]: 2.9

CC(=O)O[C@H]1C(=O)[C@@]2(C)[C@H]([C@H](OC(=O)c3ccccc3)[C@]3(O)C[C@H](OC(=O)[C@H](O)[C@@H](NC(=O)c4ccccc4)c4ccccc4)C(C)=C1C3(C)C)[C@]1(OC(C)=O)CO[C@@H]1C[C@@H]2O [taxol]
effect on DNA synthesis ([3H]-thymidine incorporation) ([2]; Example 1, even at 0.01 nM, FIG. 3): severely impacted DNA synthesis

C[C@H](/C=C/[C@H](C)C(C)(C)O)[C@H]1CC[C@H]2/C(=C/C=C3C[C@@H](O)C[C@H](O)C3)CCC[C@]12C [paricalcitol, 19-nor-1α,3β,25-trihydroxy-9,10-secoergosta-5(Z); 7(E),22(E)-triene]
VDR translocation (confocal microscopy) [3]: VDR translocated into the nucleus
EC50 [4]: 10.6 nM
EC50 ([2]; Homo sapiens, Example 1, CASMC, FIG. 4, read-out: EC50 inhibiting DNA synthesis ([3H]-thymidine incorporation)): 0.044 ± 0.004 nM
EC50 ([2]; Homo sapiens, Example 2, FIG. 8, read-out: EC50 inhibition of 3H-thymidine incorporation): 0.2 nM
inhibition at 0.01 µM ([2]; Homo sapiens, Example 2, at 10 nM, compared to cells in growth medium): 46%
FC CD1D antigen, d polypeptide (205789_at) [1]: 5.38
FC CDK5 regulatory subunit associated protein 2 (220935_s_at) [1]: 2.91
FC Kruppel-like factor 4 (gut) (220266_s_at) [1]: 2.37
FC PMS2 postmeiotic segregation increased 2 (S. cerevisiae) (209805_at) [1]: 2.18
FC Wilms tumor 1 (206067_s_at) [1]: 3.32
FC Wilms tumor 1 (216953_s_at) [1]: 4.64
FC Wilms tumor associated protein (206954_at) [1]: 2.72
FC basic helix-loop-helix domain containing, class B, 3 (221530_s_at) [1]: −1.80
FC cholecystokinin B receptor (210381_s_at) [1]: −3.04
FC cyclin F (204827_s_at) [1]: −2.75
FC cysteine and glycine-rich protein 2 (207030_s_at) [1]: −2.18
FC cysteine and glycine-rich protein 2 (211126_s_at) [1]: −2.33
FC ecotropic viral integration site 2A (204774_at) [1]: −2.49
FC fibroblast growth factor 9 (glia-activating factor) (206404_at) [1]: 1.88
FC insulin-like growth factor 1 (somatomedin C) (209540_at) [1]: 4.89
FC insulin-like growth factor 1 (somatomedin C) (209541_at) [1]: 2.63
FC insulin-like growth factor 1 (somatomedin C) (209542_x_at) [1]: 3.24
FC insulin-like growth factor 1 (somatomedin C) (211577_s_at) [1]: 3.43
FC mitogen-activated protein kinase 13 (210058_at) [1]: 2.40
FC mitogen-activated protein kinase 13 (210059_s_at) [1]: 3.26
FC myosin heavy polypeptide 10, non-muscle (213067_at) [1]: −1.80
FC putative lymphocyte G0/G1 switch gene (213524_s_at) [1]: 3.46
FC retinoblastoma-like 2 (p130) (212332_at) [1]: −1.37
FC suppressor of cytokine signaling 2 (203372_s_at) [1]: −2.70
FC suppressor of cytokine signaling 2 (203373_at) [1]: −2.39
FC tetraspan 1 (209114_at) [1]: −1.79
FC transforming growth factor, beta 2 (209909_s_at) [1]: 2.48
FC transforming growth factor, beta 2 (220407_s_at) [1]: 1.88
FC transforming growth factor, beta 3 (209747_at) [1]: 2.80
FC angiopoietin 1 (NM_001146) [1]: 1.7
FC coagulation factor II (thrombin) receptor-like 1 (NM_005242) [1]: −2.1
FC endothelin receptor type B (NM_000115) [1]: 2.3
FC fibroblast growth factor 9 (glia-activating factor) (NM_002010) [1]: 1.9
FC fibroblast growth factor receptor 3 (achondroplasia, thanatophoric dwarfism) (NM_000142) [1]: 3.4
FC insulin-like growth factor 1 (somatomedin C) (NM_000618) [1]: 2.5
FC matrix metalloproteinase 14 (membrane-inserted) (NM_004995) [1]: 1.1
FC natriuretic peptide precursor B (NM_002521) [1]: −2.5
FC oxytocin receptor (NM_000916) [1]: −2.6
FC phospholamban (NM_002667) [1]: −2.4
FC prostaglandin-endoperoxide synthase 1 (prostaglandin G/H synthase and cyclooxygenase) (NM_000962) [1]: 2.0
FC thrombomodulin (NM_000361) [1]: 3.0
FC thrombospondin 1 (AI812030) [1]: −2.7
FC transforming growth factor, beta 2 (NM_003238) [1]: 2.5
FC transforming growth factor, beta 3 (J03241) [1]: 2.9
EC50 [5]: 0.2 nM
EC50 [6]: 29.7 nM
potency in reducing PAI-1 level / inhibiting PAI-1 expression [7]: as potent as calcitriol
